Measurements reported in US9403850B2, “Beta-lactamase inhibitors” (priority 2013, dated 2016).

How the values were obtained:
VIM-2 = target: T1, VIM-2 (Escherichia coli, UniProt Q5U7L7); assay: β-Lactamase enzyme inhibition assay, VIM-2 (nitrocefin substrate); assay type: biochemical; settings: nitrocefin substrate 100 μM, 15 min preincubation at 37° C.; read-out: IC50, Class B VIM-2
T1 construct: made in house; host or cells: E. coli BL21(DE3)
Procedure: For Vim-2 metallo β-lactamase, the procedure was identical with the following exceptions, first the protein was not pH adjusted to pH 5 with 50 mM sodium acetate, second, the chromatography step was changed to a 5 ml Q sepharose anion exchange column pre-equilibrated with 50 mM Hepes pH 7.5, and elution of the protein was achieved by a linear gradient of NaCl (0-600 mM). Finally, the VIM-2 purification required a second run (3rd step) on the Q sepharose anion exchange column to achieve acceptable purity (>90%).
An equal volume of diluted enzyme stock was added, and the plates were incubated at 37° C. for 15 min. Nitrocefin was used as substrate for p99 AmpC, VIM-2 and OXA-1 and dispensed into each well at a final concentration of 100 μM. Absorbance at 486 nm was immediately monitored for 10 min using a Biotek Powerwave XS2 microplate spectrophotometer using the GEN5 softweare package (Biotek Instruments, Winooski Vt.). In an analogous fashion, imipenem was used as substrate for Kpc-2 and Cefotaxime was used for SHV-5, while changes in absorbance upon hydrolysis of the β-lactam ring were monitored at 300 nm and 260 nm respectively in UV-transparent 96-well microtiter assay plates. Maximum rates of hydrolysis were compared to those in control wells (without inhibitors), and percentages of enzyme inhibition were calculated for each concentration of inhibitor. The concentration of inhibitor needed to reduce the initial rate of hydrolysis of substrate by 50% (IC50) was calculated as the residual activity of β-lactamase at 486 nm using GraFit version 7 kinetics software package (Erithacus Software, Surrey, UK).
Using the methodology described above, examples of the current invention were evaluated for their ability to inhibit β-lactamase enzymes from all four Ambler classifications (A through D). […] NT=Not tested.

[1] = system: E. coli ESBL4 expressing CTX-M-15; assay: Broth microdilution MIC assay, partner ceftazidime;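 note: ceftazidime held fixed at 4 µg/mL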; assay type: cell-based; settings: Escherichia coli, read-out: MIC of Exemplary Compounds in presence of fixed β-lactams, Fixed CAZ, E. coli ESBL4 CTX-M-15
[2] = system: E. cloacae 144200 expressing Class C P99 AmpC; assay: Broth microdilution MIC assay, partner ceftazidime; assay type: cell-based; settings: for MIC: Enterobacter cloacae, read-out: MIC of Exemplary Compounds in presence of fixed β-lactams, Fixed CAZ, E. cl. 144200 p99 AmpC
[3] = system: K. pneumoniae 156319 expressing KPC-3; assay: Broth microdilution MIC assay, partner meropenem; assay type: cell-based; settings: Klebsiella pneumoniae, read-out: MIC of Exemplary Compounds in presence of fixed β-lactams, Fixed Mero, K.P. 156319 KPC-3
[4] = system: P. aeruginosa Ps296 expressing VIM-2; assay: Broth microdilution MIC assay, partner meropenem; assay type: cell-based; settings: Pseudomonas aeruginosa, read-out: MIC of Exemplary Compounds in presence of fixed β-lactams, Fixed Mero, P. aerug. Ps296 VIM-2
[5] = system: K. pneumoniae A-1797 expressing KPC-2 and VIM-4; assay: Broth microdilution MIC assay, partner meropenem; assay type: cell-based; settings: Klebsiella pneumoniae, read-out: MIC of Exemplary Compounds in presence of fixed β-lactams, Fixed Mero, K.P. A-1797 KPC-2 VIM-4
[6] = system: S. aureus MSSA-7 producing penicillinase PC-1; assay: Broth microdilution MIC assay, partner piperacillin; assay type: cell-based; settings: Staphylococcus aureus, fixed piperacillin 4 μg/mL, read-out: MIC of Exemplary Compounds in presence of fixed β-lactams, Fixed Pip, S. aureus MSSA-7 PC-1

| Structure (SMILES) | IC50 (VIM-2) | MIC [1] | MIC [2] | MIC [3] | MIC [4] | MIC [5] | MIC [6] | MIC of Exemplary Compounds in presence of fixed β-lactams, Fixed CAZ, E. cl. 144200 p99 AmpC ([2]; fixed ceftazidime 4 μg/mL) |
| --- | --- | --- | --- | --- | --- | --- | --- | --- |
| N=C(N)N1Cc2ccc(CC(=O)N[C@H]3Cc4cccc(C(=O)O)c4OB3O)cc2C1 [Example 37, (3R)-3-[[2-(2-carbamimidoylisoindolin-5-yl)acetyl]amino]-2-hydroxy-3,4-dihydro-1,2-benzoxaborinine-8-carboxylic acid] | 100 to 1000 nM | < 4 µg/mL | < 4 µg/mL | < 4 µg/mL | < 4 µg/mL | > 32 µg/mL | < 4 µg/mL | – |
| O=C(Cc1ccc(O)c(O)c1)N[C@H]1Cc2cccc(C(=O)O)c2OB1O [Example 38, (R)-3-(2-(3,4-dihydroxyphenyl)acetamido)-2-hydroxy-3,4-dihydro-2H-benzo[e][1,2]oxaborinine-8-carboxylic acid] | 100 to 1000 nM | < 4 µg/mL | < 4 µg/mL | < 4 µg/mL | 8 to 32 µg/mL | 8 to 32 µg/mL | < 4 µg/mL | – |
| O=C(N[C@H]1Cc2cccc(C(=O)O)c2OB1O)c1ccc(O)c(O)c1 [Example 39, (R)-3-(3,4-dihydroxybenzamido)-2-hydroxy-3,4-dihydro-2H-benzo[e][1,2]oxaborinine-8-carboxylic acid] | 100 to 1000 nM | < 4 µg/mL | < 4 µg/mL | < 4 µg/mL | 8 to 32 µg/mL | 8 to 32 µg/mL | 8 to 32 µg/mL | – |
| NCCOc1ccc(C(=O)N[C@H]2Cc3cccc(C(=O)O)c3OB2O)cc1O [Example 40, (R)-3-(4-(2-aminoethoxy)-3-hydroxybenzamido)-2-hydroxy-3,4-dihydro-2H-benzo[e][1,2]oxaborinine-8-carboxylic acid] | < 100 nM | < 4 µg/mL | < 4 µg/mL | < 4 µg/mL | < 4 µg/mL | < 4 µg/mL | < 4 µg/mL | – |
| NCCn1ccc2ccc(C(=O)N[C@H]3Cc4cccc(C(=O)O)c4OB3O)cc21 [Example 41, (R)-3-{[1-(2-Amino-ethyl)-1H-indole-6-carbonyl]-amino}-2-hydroxy-3,4-dihydro-2H-benzo[e][1,2]oxaborinine-8-carboxylic acid] | < 100 nM | < 4 µg/mL | < 4 µg/mL | > 32 µg/mL | 8 to 32 µg/mL | < 4 µg/mL | < 4 µg/mL | – |
| NCCn1ccc2c(C(=O)N[C@H]3Cc4cccc(C(=O)O)c4OB3O)cccc21 [Example 42, (R)-3-{[1-(2-Amino-ethyl)-1H-indole-4-carbonyl]-amino}-2-hydroxy-3,4-dihydro-2H-benzo[e][1,2]oxaborinine-8-carboxylic acid] | 100 to 1000 nM | < 4 µg/mL | < 4 µg/mL | > 32 µg/mL | < 4 µg/mL | 8 to 32 µg/mL | < 4 µg/mL | – |
| Cn1ccc2ccc(C(=O)N[C@H]3Cc4cccc(C(=O)O)c4OB3O)cc21 [Example 43, (R)-2-Hydroxy-3-[(1-methyl-1H-indole-6-carbonyl)-amino]-3,4-dihydro-2H-benzo[e][1,2]oxaborinine-8-carboxylic acid] | 100 to 1000 nM | < 4 µg/mL | < 4 µg/mL | > 32 µg/mL | > 32 µg/mL | > 32 µg/mL | < 4 µg/mL | – |
| NCc1cc(CN)cc(C(=O)N[C@H]2Cc3cccc(C(=O)O)c3OB2O)c1 [Example 44, (R)-3-(3,5-bis(aminomethyl)benzamido)-2-hydroxy-3,4-dihydro-2H-benzo[e][1,2]oxaborinine-8-carboxylic acid] | 1000 to 10000 nM | 8 to 32 µg/mL | – | > 32 µg/mL | > 32 µg/mL | > 32 µg/mL | > 32 µg/mL | A (A represents an MIC of the fixed β-lactam antibiotic in the presence of >32 μg/mL of a β-lactamase inhibitor of exemplary compounds) |
| N=C(N)NCc1cc(CNC(=N)N)cc(C(=O)N[C@H]2Cc3cccc(C(=O)O)c3OB2O)c1 [Example 45, (R)-3-(3,5-bis(guanidinomethyl)benzamido)-2-hydroxy-3,4-dihydro-2H-benzo[e][1,2]oxaborinine-8-carboxylic acid] | < 100 nM | < 4 µg/mL | < 4 µg/mL | < 4 µg/mL | < 4 µg/mL | < 4 µg/mL | > 32 µg/mL | – |
| O=C(Cc1ccc2cc[nH]c2c1)N[C@H]1Cc2cccc(C(=O)O)c2OB1O [Example 46, (R)-2-Hydroxy-3-(2-1H-indol-6-yl-acetylamino)-3,4-dihydro-2H-benzo[e][1,2]oxaborinine-8-carboxylic acid] | < 100 nM | < 4 µg/mL | < 4 µg/mL | < 4 µg/mL | < 4 µg/mL | < 4 µg/mL | 8 to 32 µg/mL | – |
| O=C(N[C@H]1Cc2cccc(C(=O)O)c2OB1O)c1ccc(-c2ncc[nH]2)cc1 [Example 47, (R)-2-Hydroxy-3-[4-(1H-imidazol-2-yl)-benzoylamino]-3,4-dihydro-2H-benzo[e][1,2]oxaborinine-8-carboxylic acid] | 100 to 1000 nM | < 4 µg/mL | < 4 µg/mL | < 4 µg/mL | 8 to 32 µg/mL | > 32 µg/mL | < 4 µg/mL | – |
| CN1Cc2ccc(CC(=O)N[C@H]3Cc4cccc(C(=O)O)c4OB3O)cc2C1 [Example 48, (R)-2-Hydroxy-3-[2-(2-methyl-2,3-dihydro-1H-isoindol-5-yl)-acetylamino]-3,4-dihydro-2H-benzo[e][1,2]oxaborinine-8-carboxylic acid] | < 100 nM | < 4 µg/mL | < 4 µg/mL | < 4 µg/mL | < 4 µg/mL | < 4 µg/mL | < 4 µg/mL | – |
| NCCN1Cc2ccc(CC(=O)N[C@H]3Cc4cccc(C(=O)O)c4OB3O)cc2C1 [Example 49, (R)-3-{2-[2-(2-Amino-ethyl)-2,3-dihydro-1H-isoindol-5-yl]-acetylamino}-2-hydroxy-3,4-dihydro-2H-benzo[e][1,2]oxaborinine-8-carboxylic acid] | 100 to 1000 nM | < 4 µg/mL | < 4 µg/mL | < 4 µg/mL | < 4 µg/mL | > 32 µg/mL | < 4 µg/mL | – |
| O=C(N[C@H]1Cc2cccc(C(=O)O)c2OB1O)c1cnc2c(c1)CNC2 [Example 50, (3R)-3-(6,7-dihydro-5H-pyrrolo[3,4-b]pyridine-3-carbonylamino)-2-hydroxy-3,4-dihydro-1,2-benzoxaborinine-8-carboxylic acid] | 100 to 1000 nM | < 4 µg/mL | < 4 µg/mL | < 4 µg/mL | < 4 µg/mL | > 32 µg/mL | < 4 µg/mL | – |
| O=C(Cc1ccc2c(c1)CNCC2)N[C@H]1Cc2cccc(C(=O)O)c2OB1O [Example 51, (R)-2-Hydroxy-3-(2-1,2,3,4-tetrahydro-isoquinolin-7-yl-acetylamino)-3,4-dihydro-2H-benzo[e][1,2]oxaborinine-8-carboxylic acid] | < 100 nM | < 4 µg/mL | < 4 µg/mL | < 4 µg/mL | < 4 µg/mL | < 4 µg/mL | < 4 µg/mL | – |
| O=C(N[C@H]1Cc2cccc(C(=O)O)c2OB1O)c1cnco1 [Example 52, (R)-2-Hydroxy-3-[(oxazole-5-carbonyl)-amino]-3,4-dihydro-2H-benzo[e][1,2]oxaborinine-8-carboxylic acid] | 100 to 1000 nM | < 4 µg/mL | < 4 µg/mL | < 4 µg/mL | 8 to 32 µg/mL | > 32 µg/mL | < 4 µg/mL | – |
| O=C(O)c1ccccc1C(=O)N[C@H]1Cc2cccc(C(=O)O)c2OB1O [Example 53, (R)-3-(2-carboxybenzamido)-2-hydroxy-3,4-dihydro-2H-benzo[e][1,2]oxaborinine-8-carboxylic acid] | 1000 to 10000 nM | < 4 µg/mL | < 4 µg/mL | < 4 µg/mL | > 32 µg/mL | 8 to 32 µg/mL | < 4 µg/mL | – |
